Reference: patent publication US10087144B2, “Agents for use in the treatment of cardiovascular and inflammatory diseases structurally based on 4(1 H)-quinolone” (UCL Business PLC, priority 2015, dated 2018)

Tests used:
[1] = system: rat mesenteric artery smooth muscle cells; experiment: Ca2+ flux in response to Angiotensin II in isolated rat mesenteric artery smooth muscle cells (FLIPR); assay type: cell-based; details: inhibition of Angiotensin II (100 nM) Ca2+ flux peak fluorescence; for inhibition at 1 µM / inhibition at 10 µM: Rattus norvegicus; for inhibition at 1 µM: read-out: % inhibition 1 μM; for inhibition at 10 µM: read-out: % inhibition 10 μM
Protocol: Mesenteric artery smooth muscle cells were isolated from male Sprague-Dawley rats (200-250 g). Mesenteric arteries were dissected, cleared of extraneous tissue and incubated in an enzyme solution containing collagenase type I (1 mg/ml), soybean trypsin inhibitor (0.25 mg/ml), bovine albumin (1 mg/ml), CaCl2 (0.2 mM), 100 U/ml penicillin (100 U/ml) and streptomycin (100 μg/ml) in a humidified incubator with 5% CO2 in air. The enzyme solution was replenished at 30 min intervals and cells were pelleted by centrifugation (200 g, 5 min) and differentially plated (×2) for 15 min in Dulbecco's Modified Eagle's Medium (DMEM) supplemented with penicillin (100 U/ml), streptomycin (100 μg/ml), L-Glutamine (2 mM) and 10% heat inactivated New Zealand foetal calf serum. Cells were passaged by trypsinisation and viability determined by trypan blue exclusion.
Measurements of Ca^2+ flux in response to Angiotensin II were conducted using a Fluorescent Imaging Plate Reader (FLIPR; Molecular Devices). Cells were plated at a density of 10,000 cells/well into black, clear-bottomed 96-well plates in DMEM supplemented with penicillin (100 U/ml), streptomycin (100 μg/ml), L-Glutamine (2 mM) and 10% heat inactivated New Zealand foetal calf serum. 24 hrs later the cells were incubated with Fluo-3-AM (4 μM) for 60 min at 37° C. Once dye-loaded, the cells were washed thoroughly with the proprietary assay buffer to remove any unincorporated dye. The cells were then incubated with varying concentrations of a number of representative NPR-C agonist molecules of the invention, C-type natriuretic peptide or vehicle (DMSO) and placed into the FLIPR. After 15 mins, Angiotensin II (100 nM) was automatically dispensed into each well and the fluorescence signal followed for 5 mins. Potency was determined by comparison of the peak fluorescence in each test well (run in triplicate) with that of the control (Angiotensin II alone). Background fluorescence (assay buffer only) was subtracted from all values.

rat mesenteric arteries = experiment: Vasoreactivity in rat mesenteric arteries in vitro (relaxation of U46619-contracted vessels, tension myograph); details: for inhibition at 1 µM / inhibition at 3 µM / inhibition at 10 µM / inhibition at 30 µM / EC50: Rattus norvegicus; for inhibition at 1 µM / inhibition at 3 µM / inhibition at 10 µM / inhibition at 30 µM / % relaxation 1 μM / % relaxation 3 μM / % relaxation 10 μM / % relaxation 30 μM: U46619-contracted third-order arteries; for EC50: vasorelaxation, calculated from concentration-response curves
Protocol: Male rats (Sprague-Dawley; 200-250 g) were stunned and killed by cervical dislocation. The mesentery was removed and third-order arteries mounted in an automated tension myograph (Danish Myotechnology). After an equilibration period of 45 min, vessels were normalized and diameter determined. Following normalization, each vessel was contracted repeatedly with the thromboxane A2-mimetic 9,11-dideoxy-11^α,9^α-epoxymethano-prostaglandin F2α (U46619; 1 μM) until the response was reproducible. The vessels were then washed to restore basal tone before contracting to approximately 50% of the maximum U46619-induced response. Once a stable response to U46619 was achieved, cumulative concentration-response curves were constructed with a variety of NPR-C agonists of the invention at varying concentrations (0.001-30 μM), or vehicle (DMSO). In some studies, concentration-response curves to NPR-C agonists were conducted in the presence of the NPR-C antagonist M372049 (10 μM). Only one curve to any one agonist was constructed in any single tissue.

SMILES	inhibition at 1 µM (rat mesenteric arteries)	inhibition at 3 µM (rat mesenteric arteries)	inhibition at 10 µM (rat mesenteric arteries)	inhibition at 30 µM (rat mesenteric arteries)	EC50 (rat mesenteric arteries)	other results
O=C(O)c1cn(Cc2ccccc2)c2ccc(Br)cc2c1=O [Compound 27, 1-benzyl-6-bromo-4-oxo-1,4-dihydroquinoline-3-carboxylic acid]	–	–	–	–	–	inhibition at 1 µM ([1]; 1 μM compound): 0%; inhibition at 10 µM ([1]; 10 μM compound): 50%
O=C(O)c1c[nH]c2ccccc2c1=O [Compound 57]	–	–	–	–	–	% inhibition 1 μM ([1]; 1 μM compound): 0%; % inhibition 10 μM ([1]; 10 μM compound): 35%
C[C@H](NC(=O)c1cn(Cc2ccccc2)c2ccc(Br)cc2c1=O)C(=O)OC(C)(C)C [Compound 59, (S)-tert-butyl 2-(1-benzyl-6-bromo-4-oxo-1,4-dihydroquinoline-3-carboxamido)propanoate]	–	–	–	–	–	inhibition at 1 µM ([1]; 1 μM compound): 20%; inhibition at 10 µM ([1]; 10 μM compound): 90%
CC(C)(C)OC(=O)n1cc(C(=O)O)c(=O)c2ccccc21 [Compound 81]	1%	1%	7%	25%	–	–
CC(C)C(NC(=O)c1cnc2ccccn2c1=O)C(=O)O (centres unmarked) [Compound 120]	–	–	–	–	–	% relaxation 1 μM (rat mesenteric arteries): 0%; % relaxation 3 μM (rat mesenteric arteries): 3%; % relaxation 10 μM (rat mesenteric arteries): 3%; % relaxation 30 μM (rat mesenteric arteries): 20%
O=C(O)CNC(=O)c1cnc2ccccn2c1=O [Compound 121]	–	–	–	–	–	% relaxation 1 μM (rat mesenteric arteries): 5%; % relaxation 3 μM (rat mesenteric arteries): 2%; % relaxation 10 μM (rat mesenteric arteries): 3%; % relaxation 30 μM (rat mesenteric arteries): 17%
CCn1cc(C(=O)O)c(=O)c2ccc(C)nc21 [Compound 137]	–	–	–	–	–	% relaxation 1 μM (rat mesenteric arteries): 0%; % relaxation 3 μM (rat mesenteric arteries): 1%; % relaxation 10 μM (rat mesenteric arteries): 9%; % relaxation 30 μM (rat mesenteric arteries): 69%
O=C(O)c1cn(Cc2cccc(Cl)c2)c2ccccc2c1=O [Compound 155, 1-(3-Chlorobenzyl)-4-oxo-1,4-dihydroquinoline-3-carboxylic acid]	4%	6%	10%	25%	–	–
CCn1cc(C(=O)NCC(=O)O)c(=O)c2ccccc21 [Compound 171, 2-(1-Ethyl-4-oxo-1,4-dihydroquinoline-3-carboxamido)acetic acid]	2%	2%	8%	20%	> 50 µM	–
O=C(O)CNC(=O)c1cn(Cc2cccc(Cl)c2)c2ccccc2c1=O [Compound 172, 2-(1-(3-Chlorobenzyl)-4-oxo-1,4-dihydroquinoline-3-carboxamido)acetic acid]	5%	20%	43%	91%	> 50 µM	–
O=C(O)CNC(=O)c1cn(Cc2ccccc2F)c2ccccc2c1=O [Compound 173, 2-(1-(2-Fluorobenzyl)-4-oxo-1,4-dihydroquinoline-3-carboxamido)acetic acid]	4%	13%	15%	79%	> 50 µM	–
COc1ccc(Cn2cc(C(=O)NCC(=O)O)c(=O)c3ccccc32)cc1 [Compound 174, 2-(1-(4-Methoxybenzyl)-4-oxo-1,4-dihydroquinoline-3-carboxamido)acetic acid]	4%	4%	8%	20%	> 50 µM	–
Cc1cc(C)cc(Cn2cc(C(=O)NCC(=O)O)c(=O)c3ccccc32)c1 [Compound 175, 2-(1-(3.5-Dimethylbenzyl)-4-oxo-1,4-dihydroquinoline-3-carboxamido)acetic acid]	8%	8%	12%	88%	> 50 µM	–
O=C(O)CNC(=O)c1cn(Cc2ccc(OC(F)(F)F)cc2)c2ccccc2c1=O [Compound 176, 2-(4-Oxo-1-(4-(trifluoromethoxy)benzyl)-1,4-dihydroquinoline-3-carboxamido)acetic acid]	8%	9%	17%	91%	> 50 µM	–
O=C(O)CNC(=O)c1cn(Cc2ccccc2Cl)c2ccccc2c1=O [Compound 177, 2-(1-(2-Chlorobenzyl)-4-oxo-1,4-dihydroquinoline-3-carboxyamido)acetic acid]	1%	3%	6%	52%	> 50 µM	–
O=C(O)CNC(=O)c1c[nH]c2ccccc2c1=O [Compound 178, 2-(4-Oxo-1,4-dihydroquinoline-3-carboxamido)acetic acid]	5%	6%	11%	16%	17.4 µM	–
O=C(N[C@@H](Cc1ccccc1)C(=O)O)c1cn(Cc2ccccc2)c2ccc(Br)cc2c1=O [Compound 187, (S)-2-(1-benzyl-6-bromo-4-oxo-1,4-dihydroquinoline-3-carboxamido)-3-phenylpropanoic acid]	31%	57%	93%	100%	1.6 µM	–
CC(C)C[C@H](NC(=O)c1cn(Cc2ccccc2)c2ccc(Br)cc2c1=O)C(=O)O [Compound 188, (S)-2-(1-benzyl-6-bromo-4-oxo-1,4-dihydroquinoline-3-carboxamido)-4-methylpentanoic acid]	4%	3%	2%	87%	> 50 µM	–
C[C@H](NC(=O)c1cn(Cc2ccccc2)c2ccc(Br)cc2c1=O)C(=O)O [Compound 189, (S)-2-(1-benzyl-6-bromo-4-oxo-1,4-dihydroquinoline-3-carboxamido)propanoic acid]	4%	12%	64%	84%	–	–
O=C(N[C@@H](Cc1ccccc1)C(=O)O)c1cn(Cc2ccccc2)c2ccccc2c1=O [Compound 200, (S)-2-(1-benzyl-4-oxo-1,4-dihydroquinoline-3-carboxamido)-3-phenylpropanoic acid]	4%	10%	67%	89%	> 50 µM	–
CC(C)C[C@H](NC(=O)c1cn(Cc2ccccc2)c2ccccc2c1=O)C(=O)O [Compound 201, (S)-2-(1-benzyl-4-oxo-1,4-dihydroquinoline-3-carboxamido)-4-methylpentanoic acid]	0%	0%	0%	82%	> 50 µM	–
C[C@H](NC(=O)c1cn(Cc2ccccc2)c2ccccc2c1=O)C(=O)O [Compound 202, (S)-2-(1-benzyl-4-oxo-1,4-dihydroquinoline-3-carboxamido)-2-methylethanoic acid]	2%	3%	20%	36%	20.3 µM	–
CC(NC(=O)c1cnc2ccccn2c1=O)C(=O)O (centres unmarked) [Compound 203]	–	–	–	–	–	% relaxation 1 μM (rat mesenteric arteries): 7%; % relaxation 3 μM (rat mesenteric arteries): 6%; % relaxation 10 μM (rat mesenteric arteries): 28%; % relaxation 30 μM (rat mesenteric arteries): 50%
CC(C)CC(NC(=O)c1cnc2ccccn2c1=O)C(=O)O (centres unmarked) [Compound 204]	–	–	–	–	–	% relaxation 1 μM (rat mesenteric arteries): 9%; % relaxation 3 μM (rat mesenteric arteries): 18%; % relaxation 10 μM (rat mesenteric arteries): 30%; % relaxation 30 μM (rat mesenteric arteries): 92%
O=C(NC(Cc1ccccc1)C(=O)O)c1cnc2ccccn2c1=O (centres unmarked) [Compound 205]	–	–	–	–	–	% relaxation 1 μM (rat mesenteric arteries): −9%; % relaxation 3 μM (rat mesenteric arteries): 13%; % relaxation 10 μM (rat mesenteric arteries): 13%; % relaxation 30 μM (rat mesenteric arteries): 14%
